# Measured values taken from PubChem BioAssay AID2060882 (Molecular Pharmacology Branch, DTP, NCI, 2025).
# System: 898857-211-R-J1-PDC complex spheroids, growth % test/control
# Test: Anticancer human tumor 898857-211-R-J1-PDC patient-derived melanoma cell line growth inhibition [RAS]
# Conditions: for IC50: curve of first compound; for viability, T/C: stronger effect = lower value
# Summary of the method: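 Tumour cells grown as complex spheroids with HUVEC endothelial cells and mesenchymal stem cells, treated with RAS pathway inhibitor combinations. Each agent spans half-log steps from near clinical Cmax, or 10 microM where Cmax is unknown.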
# [1] = second compound 0.000949 µM, first compound 0.00316 µM
# [2] = second compound 0.000949 µM, first compound 0.01 µM
# [3] = second compound 0.000949 µM, first compound 0.0316 µM
# [4] = second compound 0.000949 µM, first compound 0.1 µM
# [5] = second compound 0.000949 µM, first compound 0.316 µM
# [6] = second compound 0.000949 µM, first compound 1 µM
# [7] = second compound 0.003 µM, first compound 0.00316 µM
# [8] = second compound 0.003 µM, first compound 0.01 µM
# [9] = second compound 0.003 µM, first compound 0.0316 µM
# [10] = second compound 0.003 µM, first compound 0.1 µM
# [11] = second compound 0.003 µM, first compound 0.316 µM
# [12] = second compound 0.003 µM, first compound 1 µM
# [13] = second compound 0.00949 µM, first compound 0.00316 µM
# [14] = second compound 0.00949 µM, first compound 0.01 µM
# [15] = second compound 0.00949 µM, first compound 0.0316 µM
# [16] = second compound 0.00949 µM, first compound 0.1 µM
# [17] = second compound 0.00949 µM, first compound 0.316 µM
# [18] = second compound 0.00949 µM, first compound 1 µM
# [19] = second compound 0.03 µM, first compound 0.00316 µM
# [20] = second compound 0.03 µM, first compound 0.01 µM
# [21] = second compound 0.03 µM, first compound 0.0316 µM
# [22] = second compound 0.03 µM, first compound 0.1 µM
# [23] = second compound 0.03 µM, first compound 0.316 µM
# [24] = second compound 0.03 µM, first compound 1 µM
# [25] = second compound 0.0949 µM, first compound 0.00316 µM
# [26] = second compound 0.0949 µM, first compound 0.01 µM
# [27] = second compound 0.0949 µM, first compound 0.0316 µM
# [28] = second compound 0.0949 µM, first compound 0.1 µM
# [29] = second compound 0.0949 µM, first compound 0.316 µM
# [30] = second compound 0.0949 µM, first compound 1 µM
# [31] = second compound 0.3 µM, first compound 0.00316 µM
# [32] = second compound 0.3 µM, first compound 0.01 µM
# [33] = second compound 0.3 µM, first compound 0.0316 µM
# [34] = second compound 0.3 µM, first compound 0.1 µM
# [35] = second compound 0.3 µM, first compound 0.316 µM
# [36] = second compound 0.3 µM, first compound 1 µM
# 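Also: spheroids exposed to compound for seven days before readout.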
# 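For viability, T/C in this document: 100% = DMSO vehicle control wells.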
smiles,measurement,setting,value
C=CC(=O)Nc1cc(Nc2nccc(-c3cn(C)c4ccccc34)n2)c(OC)cc1N(C)CCN(C)C + CCn1c(-c2cc(N3CCN(C)CC3)cnc2C(C)OC)c2c3cc(ccc31)-c1csc(n1)CC(NC(=O)C1CC1C)C(=O)N1CCCC(N1)C(=O)OCC(C)(C)C2,IC50,second compound 0.000949 µM,832 nM
same,IC50,second compound 0.003 µM,380 nM
same,IC50,second compound 0.00949 µM,538 nM
same,IC50,second compound 0.03 µM,561 nM
same,IC50,second compound 0.0949 µM,591 nM
same,IC50,second compound 0.3 µM,603 nM
same,"viability, T/C",[1],101%
same,"viability, T/C",[2],101%
same,"viability, T/C",[3],106%
same,"viability, T/C",[4],102%
same,"viability, T/C",[5],73.7%
same,"viability, T/C",[6],45.5%
same,"viability, T/C",[7],99%
same,"viability, T/C",[8],113%
same,"viability, T/C",[9],97%
same,"viability, T/C",[10],88.9%
same,"viability, T/C",[11],52.4%
same,"viability, T/C",[12],34.9%
same,"viability, T/C",[13],105%
same,"viability, T/C",[14],112%
same,"viability, T/C",[15],114%
same,"viability, T/C",[16],88.9%
same,"viability, T/C",[17],65.5%
same,"viability, T/C",[18],33.7%
same,"viability, T/C",[19],102%
same,"viability, T/C",[20],96.2%
same,"viability, T/C",[21],110%
same,"viability, T/C",[22],91.3%
same,"viability, T/C",[23],64.7%
same,"viability, T/C",[24],35.6%
same,"viability, T/C",[25],106%
same,"viability, T/C",[26],104%
same,"viability, T/C",[27],101%
same,"viability, T/C",[28],96%
same,"viability, T/C",[29],60.5%
same,"viability, T/C",[30],41.1%
same,"viability, T/C",[31],125%
same,"viability, T/C",[32],114%
same,"viability, T/C",[33],102%
same,"viability, T/C",[34],97%
same,"viability, T/C",[35],64.7%
same,"viability, T/C",[36],36.2%
O=C(c1ccc(F)c(F)c1Nc1ccc(I)cc1F)N1CC(O)([C@@H]2CCCCN2)C1 + CCn1c(-c2cc(N3CCN(C)CC3)cnc2C(C)OC)c2c3cc(ccc31)-c1csc(n1)CC(NC(=O)C1CC1C)C(=O)N1CCCC(N1)C(=O)OCC(C)(C)C2,IC50,second compound 0.000949 µM,< 3.16 nM
same,IC50,second compound 0.003 µM,< 3.16 nM
same,IC50,second compound 0.00949 µM,< 3.16 nM
same,IC50,second compound 0.03 µM,< 3.16 nM
same,IC50,second compound 0.0949 µM,< 3.16 nM
same,IC50,second compound 0.3 µM,< 3.16 nM
same,"viability, T/C",[1],39.8%
same,"viability, T/C",[2],24.2%
same,"viability, T/C",[3],16.8%
same,"viability, T/C",[4],13.9%
same,"viability, T/C",[5],13%
same,"viability, T/C",[6],9.63%
same,"viability, T/C",[7],33.1%
same,"viability, T/C",[8],21.3%
same,"viability, T/C",[9],17.5%
same,"viability, T/C",[10],12.4%
same,"viability, T/C",[11],10.3%
same,"viability, T/C",[12],6.63%
same,"viability, T/C",[13],32%
same,"viability, T/C",[14],20.5%
same,"viability, T/C",[15],17.8%
same,"viability, T/C",[16],14.2%
same,"viability, T/C",[17],11.3%
same,"viability, T/C",[18],3.23%
same,"viability, T/C",[19],24.2%
same,"viability, T/C",[20],20.7%
same,"viability, T/C",[21],17.8%
same,"viability, T/C",[22],12.8%
same,"viability, T/C",[23],7.8%
same,"viability, T/C",[24],2.22%
same,"viability, T/C",[25],24.6%
same,"viability, T/C",[26],20.2%
same,"viability, T/C",[27],14.7%
same,"viability, T/C",[28],10.4%
same,"viability, T/C",[29],3.52%
same,"viability, T/C",[30],1.46%
same,"viability, T/C",[31],24.1%
same,"viability, T/C",[32],19.1%
same,"viability, T/C",[33],13.3%
same,"viability, T/C",[34],8.51%
same,"viability, T/C",[35],3.03%
same,"viability, T/C",[36],1.17%
